Reference: patent publication US20070213257A1, “COMPOSITIONS AND METHODS FOR COMPLEXES OF NUCLEIC ACIDS AND PEPTIDES” (Nastech Pharmaceutical Company Inc., priority 2005, published 2007)
Read-outs that look alike come from different tables or passages of the source.

Experiments:
[1] = target: PN73 (Homo sapiens, UniProt P62807); test: SEC-UV/LS: effect of organic salt on PN73 aggregation; format: physicochemical; conditions: 100 mM salt, without LC20 siRNA
Protocol: (§1) In this example, size exclusion chromatography (SEC) coupled with an ultraviolet detector (UV 260nm) and static laser light scattering (LS) detector was used to characterize the physical properties of the LC20 siRNA/PN73 peptide complex in the presence or absence of the organic salt. In addition, the phosphate/nitrogen (P/N) charge ratio for LC20 siRNA/PN73 was calculated.
PN73 in monomeric form is 4 kiloDaltons (kDA); however an intrinsic property of this peptide is to aggregate and form large complexes in solution. An initial study was performed to analyze the physical properties of PN73, without LC20 siRNA, in the presence and absence of 100 mM NMDG-glutamate salt or 9% sorbitol (no salt environment). […] In contrast, in the presence of 100 mM NMDG-glutamate salt, two distinct adjacent UV traces were observed indicating two distinct species of PN73 were present. […] Next, the ability of NMDG-glutamate and other organic salts to reduced PN73 aggregation in the presence of LC20 siRNA was characterized by SEC-UV/LS.

[2] = target: LC20 siRNA/PN73 complex (Homo sapiens, UniProt P62807)
Sequence of LC20 siRNA/PN73 complex (P62807 13-48 limits assumed, one chain of several): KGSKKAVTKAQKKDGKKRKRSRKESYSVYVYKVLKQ
Protocol: as §1
LC20 siRNA/PN73 aggregation was characterized in the presence or absence of NMDG-glutamate by SEC-UV/LS.

Sequence of PN73 (P62807 13-48): as the sequence (P62807 13-48 limits assumed, one chain of several) above

Row | Compound | effect on PN73 aggregation [1] | stabilization of LC20 siRNA/PN73 complex in solution ([2]; 1 mM salt) | stabilization of LC20 siRNA/PN73 complex in solution ([2]; 10 mM salt) | stabilization of LC20 siRNA/PN73 complex in solution ([2]; 100 mM salt) | stabilization of LC20 siRNA/PN73 complex in solution ([2]; 150 mM salt)
1 | CNC[C@H](O)[C@@H](O)[C@H](O)[C@H](O)CO.N[C@@H](CCC(=O)O)C(=O)O [NMDG-glutamate, N-methyl-D-glucamine (NMDG)] | reduces PN73 aggregation significantly | effective stabilizer | effective stabilizer | effective stabilizer | –
2 | N=C(N)NCCC[C@H](N)C(=O)O [arginine glutamate, arginine] | – | effective stabilizer | effective stabilizer | effective stabilizer | not an effective stabilizer
3 | NCCCNCCCCNCCCN [spermine acetate, spermine] | – | effective LC20 siRNA/PN73 stabilizer | effective LC20 siRNA/PN73 stabilizer | dissociates the LC20 siRNA/PN73 peptide complex | –
4 | trimethylethanolamine (Choline) [choline chloride] | – | may not be suitable as a stabilizer | may not be suitable as a stabilizer | may not be suitable as a stabilizer | –
